Source: the supplement of paper PMC11821682

Experiments:
Danio rerio embryo [1] = assay: BMC10 any morphological effect or mortality at 120 hpf; higher = less toxic
Danio rerio embryo [2] = assay: LEL larval photomotor response dark phase 120 hpf
Method: (§1)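 ZBEscreen: dechorionated Tropical 5D zebrafish embryos were exposed from 4 hpf in 96-well plates (1% DMSO, 28 °C). All compounds were first tested at 100 µM; hits were retested at 0.005-100 µM. Morphology and mortality were scored at 120 hpf and fitted as BMC10 (3-parameter log-logistic, extra risk). The embryonic photomotor response at 24 hpf and the larval photomotor response at 120 hpf are given as lowest effect levels (K-S test, p<0.01). NA = not significant up to 100 µM; NT = not tested.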

Danio rerio embryo [3] = assay: LEL embryonic photomotor response 24 hpf
Method: as §1

HL-60 = assay: Cell Health Index (toxicity pseudo-probability over dose series) (index 0-1); higher = more cytotoxic / cell stress;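 note: HL-60 cells exposed 4 h at 37 °C to ten threefold dilutions spanning 5 nM to 100 µM, multiparametric flow cytometry features scored by machine-learning classification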
Danio rerio embryo [4] = assay: BMC10 mortality 24-120 hpf; higher = less toxic
Method: as §1

Structure (SMILES)	BMC10 any morphological effect or mortality (Danio rerio embryo [1]) [µM]	LEL larval photomotor response dark phase 120 hpf (Danio rerio embryo [2]) [µM]	LEL embryonic photomotor response 24 hpf (Danio rerio embryo [3]) [µM]	Cell Health Index (HL-60)	BMC10 mortality 24-120 hpf (Danio rerio embryo [4]) [µM]
C[C@H]1[C@@H](O)O[C@@H]2O[C@@]3(C)CC[C@H]4[C@H](C)CC[C@@H]1[C@@]24OO3 [Dihydroartemisinin]	2.99	1.23	> 100	0.215	2.11
COc1c(C)c2c(c(O)c1C/C=C(\C)CCC(=O)O)C(=O)OC2 [Mycophenolic acid]	1.23	> 100	11.1	0.204	1.93
CN1CCN(CCOc2cc(OC3CCOCC3)c3c(Nc4c(Cl)ccc5c4OCO5)ncnc3c2)CC1 [Saracatinib]	15.5	> 100	100	0.695	45.7
C=C(C)[C@@H]1CC[C@]2(C(=O)O)CC[C@]3(C)[C@H](CC[C@@H]4[C@@]5(C)CC[C@H](OC(=O)CC(C)(C)C(=O)O)C(C)(C)[C@@H]5CC[C@]43C)[C@@H]12 [Bevirimat]	1.29	> 100	11.1	0.321	3.82
Fc1ccc(CNc2ncnc3ccc(F)cc23)cc1 [Spautin-1]	0.511	1.23	3.7	0.772	1.17
C/C1=C/CC/C(C)=C/CC(C)(C)/C=C/C1=O [Zerumbone]	2.66	> 100	11.1	0.238	9.91
CC[C@H]1CN2CCc3cc(OC)c(OC)cc3[C@@H]2C[C@@H]1C[C@H]1NCCc2cc(O)c(OC)cc21 [Cephaeline]	0.069	0.41	3.7	0.562	0.159
COC(=O)c1cc(OC)c2c(c1-c1c(CO)cc(OC)c3c1OCO3)OCO2 [Bicyclol]	4.07	> 100	0.046	0.207	10.7
O=C1C=CC2=CC=C(OC)C(C/C=C(C)\C)=C2O1 [Osthole]	3.1	> 100	3.7	0.355	8.94
CC(=O)c1cc([N+](=O)[O-])c(Sc2cccc(Cl)c2Cl)s1	0.246	> 100	> 100	0.789	27.7
O=C1C=CC2=C(C(OC/C=C(C)/C)=C(OC=C3)C3=C2)O1 [Imperatorin]	2.05	> 100	3.7	0.307	10.8
CC(C)c1cccc(=O)c(O)c1 [Hinokitiol]	3.83	> 100	33.3	0.335	10.1
NC(=O)c1cccc(-c2cc(Nc3ccc(OC(F)(F)F)cc3)ncn2)c1 [GNF-2]	3.7	> 100	11.1	0.869	4.78
S=C(N(C1=CC=CC=C1)C(/C2=C\C3=CC=C(C4=CC=CC=C4[N+]([O-])=O)O3)=O)N(C5=CC=CC=C5)C2=O [UCF 101]	3.23	> 100	> 100	0.876	4.93
Oc1c(Cl)cc(Cl)cc1Sc1cc(Cl)cc(Cl)c1O [Bithionol]	0.577	> 100	3.7	0.826	0.795
CN1Cc2c(ccc3c2OCO3)[C@@H]2[C@H]1c1cc3c(cc1C[C@@H]2O)OCO3 [Chelidonine]	0.064	> 100	> 100	0.277	0.079
O=C(Nc1cc(C(F)(F)F)ccc1N1CCCCC1)c1ccncc1 [SRPIN340]	0.68	> 100	33.3	0.799	10.3
CC(C)C(=O)SCCCCCCC(=O)Nc1nc(-c2ccccc2)cs1 [NCH-51]	0.188	> 100	0.41	0.268	0.624
CC1(C)CC[C@]2(C(=O)O)CC[C@]3(C)C(=CC[C@@H]4[C@@]5(C)C[C@@H](O)[C@H](O)C(C)(C)C5CC[C@]43C)[C@H]2C1 (stereo not given in full) [Maslinic acid]	13.3	> 100	> 100	0.494	13.3
C=CCc1ccc(O)c(-c2ccc(O)c(CC=C)c2)c1 [Honokiol]	5.7	> 100	3.7	0.542	9.2
CCOC(=O)c1ccc(OCCC2CCN(c3ccc(C)nn3)CC2)cc1 [Pirodavir]	2.02	> 100	3.7	0.528	1.43
Cc1cnc(-c2ccccc2C(C)C)nc1NCc1ccc(-n2ccnn2)cc1 [ML-323]	9.11	> 100	11.1	0.577	10.5
O=C(N/N=C/c1ccc(O)c(O)c1)c1cc2ccccc2cc1O [Dynasore]	10.2	> 100	33.3	0.48	7.92
COc1cc(/C=C\C(=O)CC(=O)/C=C\c2ccc(O)c(OC)c2)ccc1O [Curcumin]	30.8	> 100	> 100	0.401	40
CC(C)(C)C(O)C(Oc1ccc(-c2ccccc2)cc1)n1cncn1 (stereo not given) [Bitertanol]	16.4	11.1	33.3	0.408	30.3
O=C(NCCO)c1cccc(-c2cc(Nc3ccc(OC(F)(F)F)cc3)ncn2)c1 [GNF-5]	28.6	33.3	> 100	0.81	36.2

Structure (SMILES)	BMC10 any morphological effect or mortality (Danio rerio embryo [1]) [µM]	LEL larval photomotor response dark phase 120 hpf (Danio rerio embryo [2]) [µM]	LEL embryonic photomotor response 24 hpf (Danio rerio embryo [3]) [µM]	Cell Health Index (HL-60)	BMC10 mortality 24-120 hpf (Danio rerio embryo [4]) [µM]
Cl.O[C@@H](c1cc(C(F)(F)F)nc2c(C(F)(F)F)cccc12)[C@H]1CCCCN1 [Mefloquine]	8.89	> 100	0.015	0.931	10.7
COc1ccc2cc1Oc1ccc(cc1)C[C@H]1c3c(cc4c(c3Oc3cc5c(cc3OC)CCN(C)[C@@H]5C2)OCO4)CCN1C [Cepharanthine]	10.5	0.41	> 100	0.911	10.9
NC(=O)c1ccc(I)c([N+](=O)[O-])c1 [Iniparib]	10.2	> 100	33.3	0.283	33.9
O=C1c2cccc(O)c2C(=O)c2c(O)cc(CO)cc21 [Aloe-emodin]	9.08	> 100	3.7	0.198	17.1
COc1ccc2nc3cc(Cl)ccc3c(Nc3cc(CN4CCCC4)c(O)c(CN4CCCC4)c3)c2n1.O=P(O)(O)O.O=P(O)(O)O.O=P(O)(O)O.O=P(O)(O)O [Pyronaridine]	1.18	> 100	3.7	0.929	3.65
C[C@H]1O[C@@H](O[C@H]2CC[C@@]3(C)[C@@H](CC[C@]4(C)[C@@H]3C=C[C@]35OC[C@@]6(CCC(C)(C)C[C@H]63)[C@@H](O)C[C@]54C)[C@]2(C)CO)[C@H](O)[C@@H](O[C@@H]2O[C@H](CO)[C@@H](O)[C@H](O)[C@H]2O)[C@H]1O [Saikosaponin A]	> 100	> 100	> 100	0.959	1.46
CCC(C)n1ncn(-c2ccc(N3CCN(c4ccc(OC[C@H]5CO[C@](Cn6cncn6)(c6ccc(Cl)cc6Cl)O5)cc4)CC3)cc2)c1=O (stereo not given in full) [Itraconazole]	0.113	0.41	3.7	0.382	0.276
CC(C)(C)Oc1cccc2nc(N)nc(N)c12 [HZ-1157]	> 100	> 100	33.3	0.463	16.1
Cc1sc2c(c1C)C(c1ccc(Cl)cc1)=N[C@@H](CC(=O)OC(C)(C)C)c1nnc(C)n1-2 [(+)-JQ1]	1.13	> 100	3.7	0.87	1.15
CN1CCN(CCCN2c3ccccc3Sc3ccc(C(F)(F)F)cc32)CC1.Cl.Cl [Trifluoperazine]	3.55	> 100	11.1	0.898	4.13
OC1=C2C(C(C=C([C@@](O)([H])C/C=C(C)\C)C2=O)=O)=C(O)C=C1 [Shikonin]	1.08	> 100	3.7	0.884	1.73
O=C(Nc1ncc([N+](=O)[O-])s1)c1ccccc1O [Tizoxanide]	29.5	> 100	> 100	0.736	44.2
C/C=C(/C)C(=O)OC(C)(C)[C@@H]1Cc2c(ccc3ccc(=O)oc23)O1 [Columbianadin]	4.14	> 100	3.7	0.399	4.89
CN(C)CCCNC(=O)c1ccc(-c2cc(O)c3ncccc3c2)cc1 [ML-324]	15.9	> 100	11.1	0.537	15.9
CC(=O)c1c(O)c(C)c(O)c2c1OC1=CC(=O)C(C(C)=O)C(=O)C12C (stereo not given) [Usnic acid]	1.01	> 100	33.3	0.406	1.77
CC(C)(C)c1cc(C(=O)/C(C#N)=N/Nc2cccc(Cl)c2)no1 [ESI-09]	0.422	> 100	11.1	0.698	0.13
CC(=O)O[C@H]1[C@H]2O[C@]23[C@@H]2CC[C@@H]4C[C@@H](O)CC[C@]4(C)[C@H]2CC[C@]3(C)[C@H]1c1ccc(=O)oc1 [Cinobufagin]	27.2	33.3	1.23	0.556	29.9
Cl.Clc1ccc(Cn2c(CN3CCCC3)nc3ccccc32)cc1 [Clemizole]	4.04	> 100	3.7	0.453	10.1
Cl.Cl.OCCOCCN1CCN(Cc2cccc(Oc3ccccc3)c2)CC1	36.5	33.3	33.3	0.385	43.1
N#CC(=C(/N)Sc1ccccc1N)/C(C#N)=C(\N)Sc1ccccc1N [U0126]	4.02	> 100	33.3	0.558	11.5
COc1cccc2c1C(=O)c1c(O)c3c(c(O)c1C2=O)C[C@@](O)(C(=O)CO)C[C@@H]3O[C@H]1C[C@H](N)[C@H](O)[C@H](C)O1.Cl [Doxorubicin]	3.18	> 100	11.1	0.852	7.71
COc1ccc(C(=O)O[C@H]2[C@H](O[C@@H]3[C@@H](OC(C)=O)[C@H](O[C@H]4C[C@H]5[C@@H]6CC=C7C[C@@H](O)CC[C@]7(C)[C@H]6CC[C@]5(C)[C@@]4(O)[C@H](C)C(=O)CCC(C)C)OC[C@@H]3O)OC[C@@H](O)[C@@H]2O)cc1 [OSW-1]	0.03	0.14	> 100	0.822	0.03
Fc1cc(F)c2c(c1)C1C=CCC1C(c1cccnc1)N2 (stereo not given) [Golgicide A]	1.37	> 100	3.7	0.317	2.32
O[C@H]1[C@@]2([H])[C@](CC[C@]2([H])[C@](O)(C)CC/C=C(C)/C)(C)[C@]3(C)CC[C@]4([H])[C@@](CC[C@H](O[C@]5([H])O[C@H](CO)[C@@H](O)[C@H](O)[C@H]5O)C4(C)C)(C)[C@@]3([H])C1 [20(S)-Ginsenoside Rh2]	> 100	> 100	11.1	0.787	9.35
C[C@H]1[C@H](C)CC[C@]2(C(=O)O)CC[C@]3(C)C(=CC[C@@H]4[C@@]5(C)CC[C@H](O)C(C)(C)[C@@H]5CC[C@]43C)[C@H]12 [Ursolic acid]	0.748	> 100	> 100	0.434	3.95
